In US8178658B2 (Dow AgroSciences, LLC, priority 2008, dated 2012):

Key:
[1] = test system: beet armyworm (BAW; Spodoptera exigua: Lepidoptera); assay: 96-well microtiter plate-based high throughput (HTS) diet bioassay on beet armyworm (BAW HTS); format: in vivo; details: for BAW HTS: 96-well microtiter plate HTS diet assay, 12 μg test compound per well, BAW eggs, mortality at 6 d post-treatment, mortality class; for pest or weed control at 12 µg/well, 12 µg/well: Spodoptera exigua, 144 h, read-out: BAW HTS
In short: (§1)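 Percent larval mortality after six days was the endpoint. Higher-throughput plates used eggs, 12 μg compound per well and 29° C darkness; trays used second instar larvae, a 50 μg/cm^2 dose and 25° C with 14:10 light cycle.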

[2] = test system: beet armyworm (BAW; Spodoptera exigua: Lepidoptera); assay: 128-well diet tray assay on beet armyworm (BAW 50); format: in vivo; details: for BAW 50 ug/cm2: 128-well diet tray assay, 50 μg/cm^2 of test compound on diet, second instar BAW larvae, mortality class; for pest or weed control at 50 µg/cm2, 50 µg/cm2: Spodoptera exigua, 144 h, read-out: BAW 50 ug/cm2
In short: as §1

In the case of `CCO[C@@H]1[C@@H](OC)[C@H](C)O[C@@H](OC(=O)N(C)c2ccc(-c3ncn(-c4ccc(OC(F)(F)F)cc4)n3)cc2)[C@@H]1OC` [Compound 250, methyl {4-[1-(4-trifluoromethoxyphenyl)-1H-[1,2,4]triazol-3-yl]-phenyl}-carbamic acid (2S,3R,4R,5S,6S)-4-ethoxy-3,5-dimethoxy-6-methyl-tetrahydropyran-2-yl ester], the “BAW HTS” value [1] is reported as “B (either (1) the compound was tested and less than 50 percent mortality was observed or (2) the compound was not tested)”, the pest or weed control at 12 µg/well, 12 µg/well [1] is reported as less than 50% and the “BAW 50 ug/cm2” value [2] is reported as “A (the compound was tested and at least 50 percent mortality was observed)”. It also gave a pest or weed control at 50 µg/cm2, 50 µg/cm2 [2] greater than 50%.

With `CCO[C@@H]1[C@@H](OC)[C@H](C)O[C@@H](OC(=O)N(C)c2ccc(-c3ncn(-c4ccc(OC(F)(F)C(F)(F)F)cc4)n3)cc2)[C@@H]1OC` [Compound 251, methyl {4-[1-(4-pentafluoroethoxy-phenyl)-1H-[1,2,4]triazol-3-yl]-phenyl}-carbamic acid (2S,3R,4R,5S,6S)-4-ethoxy-3,5-dimethoxy-6-methyl-tetrahydropyran-2-yl ester] the “BAW HTS” value [1] was “B (either (1) the compound was tested and less than 50 percent mortality was observed or (2) the compound was not tested)”, the pest or weed control at 12 µg/well, 12 µg/well [1] was less than 50% and the “BAW 50 ug/cm2” value [2] was “A (the compound was tested and at least 50 percent mortality was observed)”. It also gave a pest or weed control at 50 µg/cm2, 50 µg/cm2 [2] greater than 50%.

In the case of `CCCO[C@@H]1[C@@H](OC)[C@H](C)O[C@@H](OC(=O)N(CC)c2ccc(-c3ncn(-c4ccc(OC(F)(F)C(F)(F)F)cc4)n3)cc2)[C@@H]1OC` [Compound 253, ethyl {4-[1-(4-pentafluoroethoxy-phenyl)-1H-[1,2,4]triazol-3-yl]-phenyl}-carbamic acid (2S,3R,4R,5S,6S)-4-propoxy-3,5-dimethoxy-6-methyl-tetrahydropyran-2-yl ester], the “BAW HTS” value [1] is reported as “A (the compound was tested and at least 50 percent mortality was observed)”, the pest or weed control at 12 µg/well, 12 µg/well [1] is reported as greater than 50% and the “BAW 50 ug/cm2” value [2] is reported as “A (the compound was tested and at least 50 percent mortality was observed)”. The pest or weed control at 50 µg/cm2, 50 µg/cm2 [2] was greater than 50%.

With `CCO[C@@H]1[C@@H](OC)[C@H](C)O[C@@H](OC(=O)N(COC)c2ccc(-c3ncn(-c4ccc(OC(F)(F)F)cc4)n3)cc2)[C@@H]1OC` [Compound 254, methoxymethyl {4-[1-(4-trifluoromethoxyphenyl)-1H-[1,2,4]triazol-3-yl]-phenyl}-carbamic acid (2S,3R,4R,5S,6S)-4-ethoxy-3,5-dimethoxy-6-methyl-tetrahydropyran-2-yl ester] the “BAW HTS” value [1] was “A (the compound was tested and at least 50 percent mortality was observed)”, the pest or weed control at 12 µg/well, 12 µg/well [1] was greater than 50% and the “BAW 50 ug/cm2” value [2] was “A (the compound was tested and at least 50 percent mortality was observed)”. The pest or weed control at 50 µg/cm2, 50 µg/cm2 [2] was greater than 50%.

`CCO[C@@H]1[C@@H](OC)[C@H](C)O[C@@H](OC(=O)N(COC)c2ccc(-c3ncn(-c4ccc(OC(F)(F)C(F)(F)F)cc4)n3)cc2)[C@@H]1OC` [Compound 255, methoxymethyl {4-[1-(4-pentafluoroethoxyphenyl)-1H-[1,2,4]triazol-3-yl]-phenyl}-carbamic acid (2S,3R,4R,5S,6S)-4-ethoxy-3,5-dimethoxy-6-methyl-tetrahydropyran-2-yl ester] was tested, and the “BAW HTS” value [1] was “B (either (1) the compound was tested and less than 50 percent mortality was observed or (2) the compound was not tested)”, the pest or weed control at 12 µg/well, 12 µg/well [1] was less than 50% and the “BAW 50 ug/cm2” value [2] was “A (the compound was tested and at least 50 percent mortality was observed)”. It also gave a pest or weed control at 50 µg/cm2, 50 µg/cm2 [2] greater than 50%.

For `C=CCN(C(=O)O[C@@H]1O[C@@H](C)[C@H](OC)[C@@H](OCC)[C@H]1OC)c1ccc(-c2ncn(-c3ccc(OC(F)(F)C(F)(F)F)cc3)n2)cc1` [Compound 256, allyl {4-[1-(4-pentafluoroethoxy-phenyl)-1H-[1,2,4]triazol-3-yl]-phenyl}-carbamic acid (2S,3R,4R,5S,6S)-4-ethoxy-3,5-dimethoxy-6-methyl-tetrahydropyran-2-yl ester], the “BAW HTS” value [1] was “A (the compound was tested and at least 50 percent mortality was observed)”, the pest or weed control at 12 µg/well, 12 µg/well [1] was greater than 50% and the “BAW 50 ug/cm2” value [2] was “A (the compound was tested and at least 50 percent mortality was observed)”. It also gave a pest or weed control at 50 µg/cm2, 50 µg/cm2 [2] greater than 50%.

In the case of `CCCO[C@@H]1[C@@H](OC)[C@H](C)O[C@@H](OC(=O)N(CO)c2ccc(-c3ncn(-c4ccc(OC(F)(F)C(F)(F)F)cc4)n3)cc2)[C@@H]1OC` [Compound 257, hydroxymethyl {4-[1-(4-pentafluoroethoxy-phenyl)-1H-[1,2,4]triazol-3-yl]-phenyl}-carbamic acid (2S,3R,4R,5S,6S)-4-propoxy-3,5-dimethoxy-6-methyl-tetrahydropyran-2-yl ester], the “BAW HTS” value [1] is reported as “B (either (1) the compound was tested and less than 50 percent mortality was observed or (2) the compound was not tested)”, the pest or weed control at 12 µg/well, 12 µg/well [1] is reported as less than 50% and the “BAW 50 ug/cm2” value [2] is reported as “A (the compound was tested and at least 50 percent mortality was observed)”. For the same compound, the pest or weed control at 50 µg/cm2, 50 µg/cm2 [2] was greater than 50%.

`CCO[C@@H]1[C@@H](OC)[C@H](C)O[C@@H](OC(=O)N(C(C)=O)c2ccc(-c3ncn(-c4ccc(OC(F)(F)C(F)(F)F)cc4)n3)cc2)[C@@H]1OC` [Compound 258, acetyl {4-[1-(4-pentafluoroethoxyphenyl)-1H-[1,2,4]triazol-3-yl]-phenyl}-carbamic acid (2S,3R,4R,5S,6S)-4-ethoxy-3,5-dimethoxy-6-methyl-tetrahydropyran-2-yl ester] was tested, and the “BAW HTS” value [1] was “A (the compound was tested and at least 50 percent mortality was observed)”, the pest or weed control at 12 µg/well, 12 µg/well [1] was greater than 50% and the “BAW 50 ug/cm2” value [2] was “A (the compound was tested and at least 50 percent mortality was observed)”. It also gave a pest or weed control at 50 µg/cm2, 50 µg/cm2 [2] greater than 50%.

In the case of `CCO[C@@H]1[C@@H](OC)[C@H](C)O[C@@H](OC(=O)N(C(=O)CCC(=O)OC)c2ccc(-c3ncn(-c4ccc(OC(F)(F)C(F)(F)F)cc4)n3)cc2)[C@@H]1OC` [Compound 259, 4-(((2S,3R,4R,5S,6S)-4-ethoxy-3,5-dimethoxy-6-methyl-tetrahydropyran-2-yloxycarbonyl)-{4-[1-(4-pentafluoroethoxy-phenyl)-1H-[1,2,4]triazol-3-yl]-phenyl}-amino)-4-oxo-butyric acid methyl ester], the “BAW HTS” value [1] is reported as “B (either (1) the compound was tested and less than 50 percent mortality was observed or (2) the compound was not tested)”, the pest or weed control at 12 µg/well, 12 µg/well [1] is reported as less than 50% and the “BAW 50 ug/cm2” value [2] is reported as “A (the compound was tested and at least 50 percent mortality was observed)”. It also gave a pest or weed control at 50 µg/cm2, 50 µg/cm2 [2] greater than 50%.
